Data taken from PMC5574226, “A Liquid Chromatography-Tandem Mass Spectrometry Method for Evaluation of Two Brands of Enalapril 20 mg Tablets in Healthy Human Volunteers” (Journal of Analytical Methods in Chemistry, 2017).
Counter-ions that a name gives are not always drawn. Like-named read-outs stand apart in the source and are kept apart here.

Columns and labels:
[1] = Bioequivalence study of two enalapril 20 mg tablet formulae, plasma levels by LC-MS/MS; assay type: in vivo, human; details: single oral dose 20 mg, 30 healthy male volunteers
Description: Protein precipitation were done for each sample by using acetonitrile. The mobile phase was prepared by mixing of 70% methanol and 30% of a mixture of 20 mM ammonium acetate and 0.2 mM formic acid, while the stationary phase was RP-C18 column (50 × 4.0 mm ID, 5 μm). The column was maintained at 40°C, while the autosampler temperature was 4°C. The flow rate was 1.0 ml/min. The plasma levels of the analytes were measured after a single dose of 20 mg enalapril tablets under fasting conditions.
In this study we applied a clinical study similar to that of [16] with modification. Thirty healthy adult male volunteers participated in this study after signing an informed consent. […]
After fasting period (12 hrs, overnight), each volunteer was given an oral dose containing 20 mg of enalapril either “A, reference” or “B, tested” formula with 200 mL of water in the sequence determined by randomization. […]
The pharmacokinetic parameters considered for assessment of the bioequivalence study between the reference drug and test drug were as follows: maximum plasma concentration (Cmax), area under plasma concentration/time plot until the last quantifiable value (AUC0–72), auxiliary parameters, time of the maximum plasma concentration (tmax), elimination half-life time (t-half), and area under plasma concentration/time plot extrapolated to infinity (AUC0–∞). […]

[2] = Stability of enalapril and enalaprilat in spiked plasma under different storage conditions; assay type: physicochemical, human; details: for Stability: n = 6; for Stability test results: spiked plasma and stock solutions, room temperature for 20 hrs, freeze-thaw cycles, autosampler, accelerated stability
Description: (4) Stability. Stability validation was done in triplicate run for low, mid, and high QC samples and calculated from spiked calibration curve. […]

[3] = cited from earlier work
[4] = design: method as in doi:10.5012/bkcs.2004.25.6.878; details: after oral administration of enalapril, LC-MS method; cited from earlier work
[5] = single oral intake of 20 mg of enalapril, 24 healthy subjects, GC-MS method; cited from earlier work
[6] = LC-MS/MS method; cited from earlier work
[7] = design: method as in PMID 27437883; details: hospitalizing type 2 diabetes mellitus patients, overall and high-risk subgroups; cited from earlier work
[8] = Accelerated stability at −30.0°C for 30 days, QC 3 ng/ml, plasma
[9] = Accelerated stability at −30.0°C for 30 days, QC 100 ng/ml, plasma
[10] = Accelerated stability at −30.0°C for 30 days, QC 160 ng/ml, plasma
[11] = Autosampler stability 24 h at 4°C, QC 3 ng/ml
[12] = Autosampler stability 24 h at 4°C, QC 100 ng/ml
[13] = Autosampler stability 24 h at 4°C, QC 160 ng/ml
[14] = Freeze and thaw stability at −20°C (3 cycles), QC 3 ng/ml, plasma
[15] = Freeze and thaw stability at −20°C (3 cycles), QC 100 ng/ml, plasma
[16] = Room temperature stability for 10 h, QC 3 ng/ml, plasma
[17] = Room temperature stability for 10 h, QC 100 ng/ml, plasma
[18] = Room temperature stability for 10 h, QC 160 ng/ml, plasma

Structure (SMILES) | Stability [2, 8] [%] | Stability [2, 9] [%] | Stability [2, 10] [%] | Stability [2, 11] [%] | Stability [2, 12] [%] | Stability [2, 13] [%] | Stability [2, 14] [%] | Stability [2, 15] [%] | Stability [2, 16] [%] | Stability [2, 17] [%] | Stability [2, 18] [%] | Stability test results [2] | AUC0–t [6] [ng·h/mL] | AUC0–∞ [6] [ng·h/mL] | Cmax [6] [ng/mL] | T1/2 [6] [h] | tmax [6] [h] | also measured
CCOC(=O)[C@H](CCc1ccccc1)N[C@@H](C)C(=O)N1CCC[C@H]1C(=O)O [enalapril, (S)-1-(N-(1-(ethoxycarbonyl)-3-phenylpropyl)-L-alanyl)-Lproline (Z)-2-butenedioate salt] | 97.81 | 96.59 | 85.10 | 95.83 | 98.34 | 95.40 | 96.45 | 98.54 | 99.57 | 101.64 | 103.66 | greater than 85% | 136 ± 36 | 138 ± 36 | 90.5 ± 28.4 | 1.35 ± 0.61 | 0.860 ± 0.310 | Tolerability in volunteers [1]: well tolerated; Bioavailability ([3]; absorbed from the gastrointestinal tract): 60–70%; Plasma level after 4 hrs ([3]; after 4 hrs): < 10 ng/mL; Effect of presence of food in the GI tract on absorption [3]: not affected; Terminal half-life [3]: about 2 h; Time to maximum plasma concentration ([3]; enalapril, after oral administration): ≤ 1 h; Maximum plasma concentration (Cmax), mean [4]: 102 ± 39 ng/mL; Time to maximum plasma concentration (tmax) [4]: 0.96 ± 0.36 h; Cmax, mean [5]: 72.9 ± 41.6 ng/mL; tmax [5]: 4.0 ± 1.4 h
C[C@H](N[C@@H](CCc1ccccc1)C(=O)O)C(=O)N1CCC[C@H]1C(=O)O [enalaprilat] | 110.47 | 103.62 | 96.68 | 100.94 | 99.93 | 102.09 | 95.31 | 96.70 | 98.02 | 98.47 | 100.17 | greater than 85% | 401 ± 89 | 420 ± 91 | 47.5 ± 12.4 | 6.71 ± 2.22 | 4.20 ± 1.06 | Stability ([2]; Freeze and thaw stability at −20°C (3 cycles), QC 160 ng/ml, plasma): 101.18%; Half-life [3]: 30 to 35 h; Time of maximum plasma concentration ([3]; enalaprilat after administration of enalapril): 3 to 4 h
N[C@@H](CC(=O)N1CCn2c(nnc2C(F)(F)F)C1)Cc1cc(F)c(F)cc1F [sitagliptin] | – | – | – | – | – | – | – | – | – | – | – | – | – | – | – | – | – | Effect on the risk for heart failure [7]: did not affect
